Test [1] relates to Tyrosine-protein kinase ABL1 (Homo sapiens), P00519 [Q252H]. As to conditions: Compound concentration 1000.0 nM.
In test [2] the target is T1, Rhodopsin kinase GRK7 (Homo sapiens) (UniProt Q8WTQ7).
T1 sequence (whole entry): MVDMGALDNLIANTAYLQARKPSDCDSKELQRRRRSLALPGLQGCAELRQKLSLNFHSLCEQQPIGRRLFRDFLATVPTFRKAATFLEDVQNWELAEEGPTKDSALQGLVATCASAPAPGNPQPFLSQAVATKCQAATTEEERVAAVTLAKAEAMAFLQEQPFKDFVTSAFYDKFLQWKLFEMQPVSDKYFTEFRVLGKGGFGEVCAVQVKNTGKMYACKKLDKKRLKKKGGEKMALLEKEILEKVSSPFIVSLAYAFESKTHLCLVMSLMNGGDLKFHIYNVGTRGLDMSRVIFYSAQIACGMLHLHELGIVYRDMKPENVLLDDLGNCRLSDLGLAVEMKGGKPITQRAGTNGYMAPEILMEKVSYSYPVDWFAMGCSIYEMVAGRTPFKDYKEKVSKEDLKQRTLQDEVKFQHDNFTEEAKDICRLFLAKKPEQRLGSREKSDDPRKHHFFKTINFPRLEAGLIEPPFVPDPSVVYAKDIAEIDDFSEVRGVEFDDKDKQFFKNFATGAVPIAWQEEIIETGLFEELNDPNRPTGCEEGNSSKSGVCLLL
As to conditions: Compound concentration 1000.0 nM.

For test [3], the target named is T2, Homeodomain-interacting protein kinase 4 (Homo sapiens) (UniProt Q8NE63).
T2 sequence (whole entry): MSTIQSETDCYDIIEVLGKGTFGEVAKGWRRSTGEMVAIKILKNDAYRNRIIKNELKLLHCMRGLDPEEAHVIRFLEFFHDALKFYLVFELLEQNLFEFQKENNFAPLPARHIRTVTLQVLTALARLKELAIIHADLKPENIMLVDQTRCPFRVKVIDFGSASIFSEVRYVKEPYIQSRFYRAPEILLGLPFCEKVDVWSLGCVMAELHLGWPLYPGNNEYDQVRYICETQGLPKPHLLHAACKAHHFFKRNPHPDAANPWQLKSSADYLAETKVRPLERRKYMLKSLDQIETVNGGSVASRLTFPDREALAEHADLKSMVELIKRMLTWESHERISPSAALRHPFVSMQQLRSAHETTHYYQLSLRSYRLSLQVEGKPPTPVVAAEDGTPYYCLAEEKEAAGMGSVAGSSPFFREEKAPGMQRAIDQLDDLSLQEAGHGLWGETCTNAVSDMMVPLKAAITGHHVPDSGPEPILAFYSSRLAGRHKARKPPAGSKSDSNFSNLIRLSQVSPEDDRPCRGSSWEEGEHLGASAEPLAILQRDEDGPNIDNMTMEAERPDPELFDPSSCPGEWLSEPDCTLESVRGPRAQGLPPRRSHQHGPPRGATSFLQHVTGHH
Conditions: Compound concentration 1000.0 nM.

The target of test [4] is T3, Interleukin-1 receptor-associated kinase 4 (Homo sapiens) (UniProt Q9NWZ3).
T3 sequence (whole entry): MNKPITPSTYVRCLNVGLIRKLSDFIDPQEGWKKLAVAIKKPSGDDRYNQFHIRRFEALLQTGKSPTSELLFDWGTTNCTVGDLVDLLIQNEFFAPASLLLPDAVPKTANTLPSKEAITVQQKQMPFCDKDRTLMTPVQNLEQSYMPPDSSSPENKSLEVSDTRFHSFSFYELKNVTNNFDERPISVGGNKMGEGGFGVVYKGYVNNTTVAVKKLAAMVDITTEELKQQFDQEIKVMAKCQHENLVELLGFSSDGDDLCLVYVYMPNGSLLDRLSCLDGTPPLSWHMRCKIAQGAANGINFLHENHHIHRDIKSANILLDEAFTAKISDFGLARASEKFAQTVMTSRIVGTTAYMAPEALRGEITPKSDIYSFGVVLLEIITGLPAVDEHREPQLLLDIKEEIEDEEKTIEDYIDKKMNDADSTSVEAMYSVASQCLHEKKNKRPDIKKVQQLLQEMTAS
As to conditions: Compound concentration 1000.0 nM.

Test [5] addresses T4, Muscle, skeletal receptor tyrosine-protein kinase (Homo sapiens) (UniProt O15146).
T4 sequence (whole entry): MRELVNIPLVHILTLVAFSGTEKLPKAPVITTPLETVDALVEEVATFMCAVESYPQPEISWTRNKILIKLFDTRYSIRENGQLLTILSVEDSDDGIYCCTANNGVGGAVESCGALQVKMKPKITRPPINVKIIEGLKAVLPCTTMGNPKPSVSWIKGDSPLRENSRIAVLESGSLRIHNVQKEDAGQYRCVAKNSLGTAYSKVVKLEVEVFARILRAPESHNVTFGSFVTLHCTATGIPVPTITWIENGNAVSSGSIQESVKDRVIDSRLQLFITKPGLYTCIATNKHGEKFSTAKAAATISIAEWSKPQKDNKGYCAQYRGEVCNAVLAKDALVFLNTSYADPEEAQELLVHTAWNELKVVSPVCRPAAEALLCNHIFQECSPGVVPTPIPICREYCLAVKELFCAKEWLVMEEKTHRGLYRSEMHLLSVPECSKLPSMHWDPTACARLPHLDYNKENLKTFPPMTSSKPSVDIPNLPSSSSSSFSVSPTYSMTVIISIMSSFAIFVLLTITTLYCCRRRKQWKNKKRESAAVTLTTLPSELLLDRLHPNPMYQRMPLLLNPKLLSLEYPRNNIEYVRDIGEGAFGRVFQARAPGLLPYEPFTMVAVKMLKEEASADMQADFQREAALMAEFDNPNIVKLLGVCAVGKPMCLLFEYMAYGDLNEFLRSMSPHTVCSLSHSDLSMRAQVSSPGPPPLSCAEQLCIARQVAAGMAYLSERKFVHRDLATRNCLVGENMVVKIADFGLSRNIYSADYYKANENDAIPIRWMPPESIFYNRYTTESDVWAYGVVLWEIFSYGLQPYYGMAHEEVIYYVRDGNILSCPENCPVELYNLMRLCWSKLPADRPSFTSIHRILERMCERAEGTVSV
Conditions: Compound concentration 1000.0 nM.

Test [6] addresses Mitogen-activated protein kinase kinase kinase 20 (Homo sapiens) (UniProt Q9NYL2). Conditions: Compound concentration 1000.0 nM.
The target in test [7] is Histamine H2 receptor (Homo sapiens) (UniProt P25021). Conditions: Compound concentration 10.0 uM.
Chain of Histamine H2 receptor (Homo sapiens) (P25021 whole entry): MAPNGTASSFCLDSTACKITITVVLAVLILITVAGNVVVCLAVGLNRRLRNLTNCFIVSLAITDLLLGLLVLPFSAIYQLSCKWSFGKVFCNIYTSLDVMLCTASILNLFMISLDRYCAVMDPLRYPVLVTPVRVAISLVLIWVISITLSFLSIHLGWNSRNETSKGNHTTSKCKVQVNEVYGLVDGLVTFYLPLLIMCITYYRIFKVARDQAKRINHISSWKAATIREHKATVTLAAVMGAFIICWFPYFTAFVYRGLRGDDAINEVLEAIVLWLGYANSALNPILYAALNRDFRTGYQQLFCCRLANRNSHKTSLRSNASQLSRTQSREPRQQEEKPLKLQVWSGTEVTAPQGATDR

Chain of Mitogen-activated protein kinase kinase kinase 20 (Homo sapiens) (Q9NYL2 2-800 limits assumed): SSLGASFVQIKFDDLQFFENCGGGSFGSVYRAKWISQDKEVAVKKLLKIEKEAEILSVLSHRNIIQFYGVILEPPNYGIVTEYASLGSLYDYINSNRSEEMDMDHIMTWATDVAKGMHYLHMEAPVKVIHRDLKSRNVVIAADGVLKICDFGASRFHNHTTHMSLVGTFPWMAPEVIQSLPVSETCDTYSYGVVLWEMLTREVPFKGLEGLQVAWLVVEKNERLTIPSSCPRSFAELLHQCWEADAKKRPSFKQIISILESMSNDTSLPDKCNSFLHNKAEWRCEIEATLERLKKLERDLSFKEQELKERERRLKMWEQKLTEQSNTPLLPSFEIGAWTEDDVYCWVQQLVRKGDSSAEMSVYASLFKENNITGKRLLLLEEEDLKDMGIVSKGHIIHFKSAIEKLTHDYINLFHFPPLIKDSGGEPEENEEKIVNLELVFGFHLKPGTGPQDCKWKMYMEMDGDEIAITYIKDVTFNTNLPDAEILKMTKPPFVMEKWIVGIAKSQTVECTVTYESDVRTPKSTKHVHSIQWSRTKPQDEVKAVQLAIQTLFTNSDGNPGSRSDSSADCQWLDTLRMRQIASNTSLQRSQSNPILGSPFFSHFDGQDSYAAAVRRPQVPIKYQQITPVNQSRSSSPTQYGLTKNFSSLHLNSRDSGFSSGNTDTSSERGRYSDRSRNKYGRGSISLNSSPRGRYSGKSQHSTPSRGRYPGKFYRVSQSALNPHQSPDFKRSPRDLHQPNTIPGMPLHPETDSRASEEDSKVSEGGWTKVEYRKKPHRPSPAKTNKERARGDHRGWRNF

Broadly, the inhibition is the relative decrease from the control value, in per cent. Regarding `CN(C)C(=O)Cn1cc(-c2nc(C3(c4ccc(-c5cnc(N)nc5)cc4)CC3)no2)cn1` [BI 0153], the residual activity in test [1] was 48%; in test [2], 84%; in test [3], 100%; in test [4] it was 84%; in test [5] it was 100%; in test [6], 92%. Besides, the inhibition in test [7] was -9.18%.
On to `CN(C)C(=O)Cn1cc(-c2nc([C@@](C)(c3ccc(-c4cnc(N)nc4)cc3)C3CC3)no2)cn1` [BI 665915], for which the residual activity in test [1] is 0%; in test [2] it was 0%; in test [3], 70%; in test [4], 85%; in test [5], 100%; in test [6], 80%. For the same compound, in test [7], the inhibition was -8.4%.
